According to US20070282007A1, “TREATMENT OF PAIN DISORDERS WITH trans 4-(3,4-DICHLOROPHENYL)-1,2,3,4-TETRAHYDRO-1-NAPHTHALENAMINE AND ITS FORMAMIDE” (SEPRACOR INC., priority 2006, published 2007):

How the values were obtained:
NE transporter = molecular target: T1, NE transporter (Homo sapiens, UniProt P23975); assay: Radioligand binding assay, NE transporter ([3H]nisoxetine displacement); conditions: human recombinant; [3H]nisoxetine 0.3 nM; read-out: Ki, Norepinephrine (NE) transporter
T1 construct: expressed in transfected cells
Protocol: The assays measured the affinity of the two compounds for transporters of the monoamines 5-HT, NE and DA. […] The transporters were human recombinant proteins expressed in mammalian cells. Binding to the 5-HT transporter was assessed by evaluating displacement of [^3H]paroxetine (0.1 nM). […] Binding to the NE transporter was assessed by evaluating displacement of [^3H]nisoxetine (0.3 nM).

[1] = molecular target: T2, Norepinephrine (NE) uptake (Rattus norvegicus, UniProt Q63380); assay: Functional uptake of radiolabeled NE into synaptosomes from rat hypothalamus; type: biochemical
T2 construct: from tissue; host or cells: synaptosomes from rat hypothalamus
Protocol: The 5-HT and NE assays were performed essentially as outlined in Perovic S. & Müller W. E. G., Arzneim.-Forsch.

[2] = molecular target: T3, recombinant human Norepinephrine (NE) transporter (Homo sapiens, UniProt P23975); assay: Functional uptake of NE into cells expressing recombinant human transporters; type: cell-based; conditions: read-out: IC50 inhibition of functional uptake in human transporters, Norepinephrine (NE)
T3 construct: expressed in transfected cells

M5 = molecular target: T4, M5 (Homo sapiens, UniProt P08912); assay: In vitro radioligand binding assay, M5; conditions: read-out: Ki, M5
T4 sequence (P08912 1-532): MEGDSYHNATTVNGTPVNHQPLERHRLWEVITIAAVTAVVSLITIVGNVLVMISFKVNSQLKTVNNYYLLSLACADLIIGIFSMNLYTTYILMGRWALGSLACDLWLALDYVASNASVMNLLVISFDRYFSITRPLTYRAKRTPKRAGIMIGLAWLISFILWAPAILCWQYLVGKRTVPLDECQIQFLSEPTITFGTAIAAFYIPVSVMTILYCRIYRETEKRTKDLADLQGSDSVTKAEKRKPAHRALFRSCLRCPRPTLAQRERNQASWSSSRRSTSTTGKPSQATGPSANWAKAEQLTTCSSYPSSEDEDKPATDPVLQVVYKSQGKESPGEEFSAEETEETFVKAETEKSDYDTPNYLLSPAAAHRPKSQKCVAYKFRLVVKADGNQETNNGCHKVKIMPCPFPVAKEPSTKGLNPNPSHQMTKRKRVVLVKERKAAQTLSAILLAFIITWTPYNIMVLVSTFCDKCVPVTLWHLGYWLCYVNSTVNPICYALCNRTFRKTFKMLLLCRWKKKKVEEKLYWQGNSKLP

5-HT2A = 5-HT2A (Homo sapiens, UniProt P28223); assay: In vitro radioligand binding assay, 5-HT2A
5-HT2C = 5-HT2C (Homo sapiens, UniProt P28335); assay: In vitro radioligand binding assay, 5-HT2C
Na^+ Channel Site 2 = assay: In vitro radioligand binding assay, Na+ channel site 2
M3 receptor = molecular target: T5, M3 receptor (Cavia porcellus, UniProt H0W1Z3); assay: Carbachol-induced contraction of the isolated Guinea pig ileum
T5 construct: from tissue; host or cells: isolated guinea pig ileum

hERG channel = hERG channel (Homo sapiens, UniProt Q12809); assay: hERG channel current in stably transfected HEK293 cells
Protocol: Studies were conducted to determine effects on IKr, the rapidly activating delayed rectifier cardiac potassium current in the human heart. […] In this assay system, HERG channel current serves as a surrogate for IKr.

Beagle dogs = assay: Cardiovascular safety study in conscious telemetered dogs; type: in vivo; conditions: single oral doses 0.5, 1.5 and 5 mg/kg
Protocol: There were four animals/compound and each animal within the treatment group was exposed to the three doses (plus a empty capsule control), in a dose ramp-up manner with a minimum of 72 hours between doses.

Rat SNL Model = assay: SNL model of neuropathic pain, mechanical hyperalgesia testing; type: in vivo
Protocol: The animals were anesthetized with isoflurane, the left L5 transverse process was removed, and the L5 and L6 spinal nerves were tightly ligated with 6-0 silk suture. The wound was then closed with internal sutures and external staples. Wound clips were removed 10-11 days following surgery.
Mechanical hyperalgesia testing: Baseline, post-injury and post-treatment values for […] mechanical sensitivity were evaluated using a Paw Pressure Analgesymeter (7200, Ugo Basile, Comerio, Italy) which generates a linearly increasing mechanical force. The mechanical nociceptive stimulus was applied to the plantar surface of the hind paws by a dome-shaped plastic tip placed between the 3rd and 4th metatarsus. […] Mechanical thresholds were defined as the force in grams at the first pain behavior, which includes paw withdrawal, struggle and/or vocalization. Paw pressure test was performed on each hind paw for each animal. The mean and standard error of the mean (SEM) were determined for each paw, in each treatment group. Mechanical hyperalgesia was evaluated 24 days post-surgery.
Ten rats were studied per group and the tests were performed blind. (1R,4S)-4-(3,4-dichlorophenyl)-1,2,3,4-tetrahydro-1-naphthalenamine (P) was evaluated at 3 doses (5, 10 and 15 mg/kg), administered orally and compared with a vehicle control group. Gabapentin (100 mg/kg) and duloxetine (30 mg/kg) administered orally under the same experimental conditions, were used as comparator substances. Mechanical allodynia and hyperalgesia testing were conducted at baseline and 1, 2 and 4 hours after test article administration.

rats = assay: Formalin paw test in the rat (late phase), flinches counted; type: in vivo
Protocol: Rats were given an intraplantar injection of 5% formalin (50 μl) into the posterior left paw. […] The number of flinches was counted for 15 minutes, beginning 20 minutes after injection of formalin. Eight rats were studied per group. The test was performed blind. […] Data were analyzed by comparing treated groups with vehicle control using unpaired Mann-Whitney U tests.

Dopamine (DA) uptake = Dopamine (DA) uptake (Rattus norvegicus, UniProt P23977); assay: biochemical
[3] = 5 mg/kg p.o. 60 min before the test
[4] = 10 mg/kg p.o. 60 min before the test
[5] = 15 mg/kg p.o. 60 min before the test

T5 sequence (H0W1Z3 1-590): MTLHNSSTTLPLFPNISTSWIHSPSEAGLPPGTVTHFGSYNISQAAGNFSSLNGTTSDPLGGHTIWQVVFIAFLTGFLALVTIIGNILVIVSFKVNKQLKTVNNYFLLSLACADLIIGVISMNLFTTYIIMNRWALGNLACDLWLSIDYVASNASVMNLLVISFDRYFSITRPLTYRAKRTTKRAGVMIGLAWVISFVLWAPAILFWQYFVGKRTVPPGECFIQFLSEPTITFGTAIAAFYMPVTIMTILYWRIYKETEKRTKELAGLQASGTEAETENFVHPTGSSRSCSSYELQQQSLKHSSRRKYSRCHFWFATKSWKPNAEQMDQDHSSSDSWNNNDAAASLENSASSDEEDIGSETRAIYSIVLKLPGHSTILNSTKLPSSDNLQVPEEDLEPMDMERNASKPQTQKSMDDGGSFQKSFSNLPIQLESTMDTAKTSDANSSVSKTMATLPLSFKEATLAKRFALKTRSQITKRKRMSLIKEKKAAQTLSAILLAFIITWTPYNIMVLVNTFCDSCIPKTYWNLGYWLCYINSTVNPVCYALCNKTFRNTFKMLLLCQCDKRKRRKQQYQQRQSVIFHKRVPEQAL
Chain of hERG channel (Q12809 whole entry): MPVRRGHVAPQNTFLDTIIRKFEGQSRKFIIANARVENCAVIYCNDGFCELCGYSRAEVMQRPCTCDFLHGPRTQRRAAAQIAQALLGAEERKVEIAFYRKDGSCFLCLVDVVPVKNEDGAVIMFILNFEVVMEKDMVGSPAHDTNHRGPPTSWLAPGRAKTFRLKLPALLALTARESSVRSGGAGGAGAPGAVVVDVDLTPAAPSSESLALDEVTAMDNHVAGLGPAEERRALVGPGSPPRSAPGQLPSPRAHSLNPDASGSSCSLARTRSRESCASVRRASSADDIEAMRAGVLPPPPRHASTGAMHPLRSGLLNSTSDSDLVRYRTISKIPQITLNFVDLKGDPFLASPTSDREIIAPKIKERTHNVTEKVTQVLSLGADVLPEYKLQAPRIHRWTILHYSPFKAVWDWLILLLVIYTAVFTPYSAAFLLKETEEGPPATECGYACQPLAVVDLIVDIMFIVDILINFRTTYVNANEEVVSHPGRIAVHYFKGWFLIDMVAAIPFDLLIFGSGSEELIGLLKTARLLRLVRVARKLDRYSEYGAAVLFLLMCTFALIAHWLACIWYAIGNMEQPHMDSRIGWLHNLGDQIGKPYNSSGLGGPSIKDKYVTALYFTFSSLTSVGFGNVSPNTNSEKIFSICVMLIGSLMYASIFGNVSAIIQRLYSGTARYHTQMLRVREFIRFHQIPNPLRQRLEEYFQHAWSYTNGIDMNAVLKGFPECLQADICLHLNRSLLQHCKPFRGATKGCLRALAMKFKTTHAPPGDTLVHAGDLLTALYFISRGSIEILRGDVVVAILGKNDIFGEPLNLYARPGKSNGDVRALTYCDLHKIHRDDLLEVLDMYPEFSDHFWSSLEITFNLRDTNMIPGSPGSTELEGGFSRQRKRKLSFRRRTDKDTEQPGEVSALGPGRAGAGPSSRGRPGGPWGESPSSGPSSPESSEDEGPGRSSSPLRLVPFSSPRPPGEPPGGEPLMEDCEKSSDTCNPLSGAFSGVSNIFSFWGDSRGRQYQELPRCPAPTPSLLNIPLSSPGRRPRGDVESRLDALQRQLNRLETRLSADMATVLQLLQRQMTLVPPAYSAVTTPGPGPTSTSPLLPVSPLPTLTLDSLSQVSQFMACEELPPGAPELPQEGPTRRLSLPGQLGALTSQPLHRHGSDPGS
Chain of 5-HT2A (P28223 whole entry, species assumed): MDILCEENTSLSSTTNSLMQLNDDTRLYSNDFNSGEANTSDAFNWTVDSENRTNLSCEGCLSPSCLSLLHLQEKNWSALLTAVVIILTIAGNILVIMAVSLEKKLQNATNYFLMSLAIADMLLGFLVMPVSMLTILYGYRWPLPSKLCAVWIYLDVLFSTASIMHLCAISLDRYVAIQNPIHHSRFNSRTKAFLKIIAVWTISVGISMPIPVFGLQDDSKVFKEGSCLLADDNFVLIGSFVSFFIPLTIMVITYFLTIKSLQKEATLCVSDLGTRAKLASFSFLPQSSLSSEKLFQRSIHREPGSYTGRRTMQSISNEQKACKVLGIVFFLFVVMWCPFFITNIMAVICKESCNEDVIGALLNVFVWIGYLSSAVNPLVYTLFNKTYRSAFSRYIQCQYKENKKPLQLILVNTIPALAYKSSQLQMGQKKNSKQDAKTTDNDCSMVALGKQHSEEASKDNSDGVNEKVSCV
Chain of Dopamine (DA) uptake (P23977 whole entry): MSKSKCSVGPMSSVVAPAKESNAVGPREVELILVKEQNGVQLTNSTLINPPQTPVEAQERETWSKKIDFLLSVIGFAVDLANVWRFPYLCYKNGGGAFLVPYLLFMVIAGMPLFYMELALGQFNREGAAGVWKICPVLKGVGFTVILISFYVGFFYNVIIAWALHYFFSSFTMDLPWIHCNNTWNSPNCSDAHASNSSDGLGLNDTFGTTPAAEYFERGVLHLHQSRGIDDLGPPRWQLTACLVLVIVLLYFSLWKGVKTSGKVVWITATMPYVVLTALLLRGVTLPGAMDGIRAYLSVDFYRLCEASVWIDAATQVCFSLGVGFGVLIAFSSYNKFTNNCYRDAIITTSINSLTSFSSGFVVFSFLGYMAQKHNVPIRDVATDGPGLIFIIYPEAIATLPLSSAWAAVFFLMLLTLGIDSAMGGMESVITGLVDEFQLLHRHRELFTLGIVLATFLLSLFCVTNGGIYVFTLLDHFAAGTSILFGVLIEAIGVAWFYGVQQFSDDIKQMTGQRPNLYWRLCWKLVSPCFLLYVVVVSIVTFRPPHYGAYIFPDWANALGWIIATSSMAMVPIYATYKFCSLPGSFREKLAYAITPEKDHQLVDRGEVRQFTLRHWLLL
T2 sequence (Q63380 1-617): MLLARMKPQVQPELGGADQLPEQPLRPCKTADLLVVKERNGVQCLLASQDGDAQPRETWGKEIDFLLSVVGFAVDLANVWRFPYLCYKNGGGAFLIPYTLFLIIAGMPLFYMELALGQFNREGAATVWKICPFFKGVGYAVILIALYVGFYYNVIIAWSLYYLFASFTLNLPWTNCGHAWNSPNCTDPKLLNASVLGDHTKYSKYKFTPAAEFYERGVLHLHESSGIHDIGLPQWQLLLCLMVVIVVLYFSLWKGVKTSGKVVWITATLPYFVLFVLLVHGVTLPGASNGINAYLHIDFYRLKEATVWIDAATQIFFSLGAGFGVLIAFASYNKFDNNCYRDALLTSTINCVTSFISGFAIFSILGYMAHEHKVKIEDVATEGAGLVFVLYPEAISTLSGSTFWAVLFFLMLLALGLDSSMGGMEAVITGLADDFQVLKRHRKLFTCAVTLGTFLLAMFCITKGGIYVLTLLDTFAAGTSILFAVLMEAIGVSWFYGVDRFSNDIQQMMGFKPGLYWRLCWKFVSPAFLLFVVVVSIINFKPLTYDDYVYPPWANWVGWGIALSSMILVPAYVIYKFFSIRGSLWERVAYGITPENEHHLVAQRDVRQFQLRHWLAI
Chain of 5-HT2C (P28335 33-458, species assumed): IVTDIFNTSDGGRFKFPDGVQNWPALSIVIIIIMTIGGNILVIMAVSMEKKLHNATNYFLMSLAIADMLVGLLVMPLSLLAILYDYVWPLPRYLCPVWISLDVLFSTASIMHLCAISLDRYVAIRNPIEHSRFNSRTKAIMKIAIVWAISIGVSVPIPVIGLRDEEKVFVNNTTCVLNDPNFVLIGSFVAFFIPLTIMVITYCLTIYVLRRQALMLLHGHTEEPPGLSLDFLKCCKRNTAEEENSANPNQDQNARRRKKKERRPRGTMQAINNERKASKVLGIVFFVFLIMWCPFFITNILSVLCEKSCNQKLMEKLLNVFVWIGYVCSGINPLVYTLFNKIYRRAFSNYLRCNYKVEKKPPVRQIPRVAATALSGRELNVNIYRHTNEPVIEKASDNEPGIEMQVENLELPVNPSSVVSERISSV
T1 sequence (P23975 whole entry): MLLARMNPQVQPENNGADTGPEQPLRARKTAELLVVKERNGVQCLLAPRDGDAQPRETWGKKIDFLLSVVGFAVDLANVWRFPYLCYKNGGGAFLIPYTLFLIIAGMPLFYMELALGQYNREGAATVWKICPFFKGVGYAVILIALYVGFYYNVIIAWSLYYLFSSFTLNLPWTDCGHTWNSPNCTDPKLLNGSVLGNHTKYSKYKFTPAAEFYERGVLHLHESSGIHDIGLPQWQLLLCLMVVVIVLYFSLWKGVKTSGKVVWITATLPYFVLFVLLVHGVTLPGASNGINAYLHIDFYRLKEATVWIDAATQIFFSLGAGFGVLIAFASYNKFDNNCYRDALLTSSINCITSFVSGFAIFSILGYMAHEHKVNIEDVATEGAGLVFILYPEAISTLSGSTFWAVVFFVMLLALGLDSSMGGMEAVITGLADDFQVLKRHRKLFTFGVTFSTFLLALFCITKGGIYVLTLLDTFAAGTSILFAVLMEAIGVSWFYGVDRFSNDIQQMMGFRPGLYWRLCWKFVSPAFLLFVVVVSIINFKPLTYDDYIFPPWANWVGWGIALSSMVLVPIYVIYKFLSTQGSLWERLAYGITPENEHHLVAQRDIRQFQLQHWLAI
T3 sequence (P23975 whole entry): as above

## N[C@@H]1CC[C@@H](c2ccc(Cl)c(Cl)c2)c2ccccc21 [Compound P, (1R,4S)-trans 4-(3,4-dichlorophenyl)-1,2,3,4-tetrahydro-1-napthalenamine]
NE transporter
  Ki: 20 nM
[1]
  IC50: 9.6 nM
[2]
  IC50: 15.6 nM
M5
  Ki: 8400 nM
5-HT2A
  Ki: 720 nM
5-HT2C
  Ki: 5100 nM
Na^+ Channel Site 2
  Ki: 1000 nM
M3 receptor; duplicate samples, read-out: IC50 for inhibition of carbachol-induced contraction of the Guinea Pig ileum
  IC50: 9000 nM
M3 receptor; graded concentrations, compound alone
  M3 agonist effect on isolated Guinea pig ileum: no an M3 agonist
hERG channel
  IC50: 800 nM
Beagle dogs
  effect on heart rate, blood pressure or ECG parameters (including QTc): no effect
Rat SNL Model; 5 mg/kg PO, 0 h (Baseline)
  Mechanical Hyperalgesia, Paw Pressure Threshold (Mean ± SEM): 147 ± 17 g
Rat SNL Model; 5 mg/kg PO, 1 h
  Mechanical Hyperalgesia, Paw Pressure Threshold (Mean ± SEM): 183 ± 35 g
Rat SNL Model; 5 mg/kg PO, 2 h
  Mechanical Hyperalgesia, Paw Pressure Threshold (Mean ± SEM): 240 ± 32 g
Rat SNL Model; 5 mg/kg PO, 4 h
  Mechanical Hyperalgesia, Paw Pressure Threshold (Mean ± SEM): 257 ± 37 g
Rat SNL Model; 10 mg/kg PO, 0 h (Baseline)
  Mechanical Hyperalgesia, Paw Pressure Threshold (Mean ± SEM): 152 ± 18 g
Rat SNL Model; 10 mg/kg PO, 1 h
  Mechanical Hyperalgesia, Paw Pressure Threshold (Mean ± SEM): 213 ± 32 g
Rat SNL Model; 10 mg/kg PO, 2 h
  Mechanical Hyperalgesia, Paw Pressure Threshold (Mean ± SEM): 309 ± 27 g
Rat SNL Model; 10 mg/kg PO, 4 h
  Mechanical Hyperalgesia, Paw Pressure Threshold (Mean ± SEM): 282 ± 30 g
Rat SNL Model; 15 mg/kg PO, 0 h (Baseline)
  Mechanical Hyperalgesia, Paw Pressure Threshold (Mean ± SEM): 164 ± 22 g
Rat SNL Model; 15 mg/kg PO, 1 h
  Mechanical Hyperalgesia, Paw Pressure Threshold (Mean ± SEM): 281 ± 37 g
Rat SNL Model; 15 mg/kg PO, 2 h
  Mechanical Hyperalgesia, Paw Pressure Threshold (Mean ± SEM): 251 ± 37 g
Rat SNL Model; 15 mg/kg PO, 4 h
  Mechanical Hyperalgesia, Paw Pressure Threshold (Mean ± SEM): 269 ± 37 g
rats; [3]
  NUMBER OF FLINCHES (20 to 35 min after formalin), mean ± s.e.m.: 89.0 ± 18.4NS
  NUMBER OF FLINCHES, % change from control: 0%
rats; [4]
  NUMBER OF FLINCHES (20 to 35 min after formalin), mean ± s.e.m.: 76.4 ± 15.2NS
  NUMBER OF FLINCHES, % change from control: −15%
rats; [5]
  NUMBER OF FLINCHES (20 to 35 min after formalin), mean ± s.e.m.: 44.6 ± 13.6
  NUMBER OF FLINCHES, % change from control: −50%
Dopamine (DA) uptake
  IC50: 6.4 nM
